Measurements as given in patent publication US11993640B2, “Treating inflammatory lung disease” (United States Government as represented by the Department …, priority 2019, dated 2024).
Entries after “also recorded” stand apart in the source; their conditions may differ. Non-standard residues stand in square brackets, D forms with d. Residues, ends and D or L forms follow the SMILES beside them. *: point of attachment. Phenylacetyl(2,3,4,5,6-F5) = O=C(Cc1c(F)c(F)c(F)c(F)c1F)*; Phe(F5) = N[C@@H](Cc1c(F)c(F)c(F)c(F)c1F)C(=O)O; Phe(4-Cl) = N[C@@H](Cc1ccc(Cl)cc1)C(=O)O; hArg = N=C(N)NCCCC[C@H](N)C(=O)O; 12Ado = NCCCCCCCCCCCC(=O)O; Nle = CCCC[C@H](N)C(=O)O; Orn = NCCC[C@H](N)C(=O)O; Abu = CC[C@H](N)C(=O)O

What was measured:
NCI-N87 cells = experiment: In vitro cell viability (CellTiter 96), stomach cancer N87; format: cell-based, human; conditions: 5 μM, 72 h; Table 3B
Description: (§1) The inhibitory effects of the various synthesized GHRH antagonists were tested in cell proliferation assays in various human cancer cell lines including stomach cancer (KATOIII, N87), colon cancer (HT-29), urothelial cancer (J82, RT4), pancreatic cancer (PANC-1, CFPAC-1), prostatic cancer (PC3), breast cancer (MX-1, HCC1806), ovarian cancer (SK-OV-3, OVCAR-3) and lung cancer (HCC827, H460).
(§2) Cell culture. Human cancer cell lines including pancreatic (PANC-1 and CFPAC-1), lung (HCC827 and H460), stomach (NCI-N87 and KATOIII), urothelial (J82, RT4), prostatic (PC3), breast (MX-1 and HCC 1806), colorectal (HT-29), and ovarian (SK-OV-3 and OVCAR-3) were obtained from the American Type Culture Collection (ATCC) and cultured at 37° C. in a humidified 95% air/5% CO2 atmosphere in the medium recommended by ATCC.
(§3) In vitro cell viability. Cell viability was analyzed as follows: cancer cells including pancreatic (PANC-1 and CFPAC-1), lung (HCC827 and H460), stomach (NCI-N87 and KATOIII), urothelial (J82, RT4), prostatic (PC3) and breast (MX-1 and HCC 1806), colorectal (HT-29) and ovarian (SK-OV-3 and OVCAR-3) were grown on 96 well plates to ˜60% confluence, the cells were starved for 24 h in culture medium containing 0.5% FBS. Cells were then treated with GHRH antagonists MIA602 AVR compounds at concentrations of 1, 2.5 or 5 μM, or vehicle (0.1% DMSO) in quintuplicates for 72 hours. The medium was replaced every 48 hours. Cell viability was measured using CellTiter 96 aqueous one solution kit (Promega). Inhibitory effects of tested AVR compounds in comparison to that of MIA602 are presented as inhibitory potency.
(§4) Inhibitory effects of selected AVR compounds in comparison to that of MIA602 are presented as inhibitory potency (e.g., percentage of inhibition). […] The cell lines tested including lung cancer HCC827 (FIG. 2A), pancreatic cancer CFPAC-1 (FIG. 2B), stomach cancer N87 (FIG. 2C), colon cancer HT-29 (FIG. 2D), breast cancers MX-1 and HCC1806 (FIGS. 2E, F). Based on the results of cell proliferation assay after cancer cells were treated with antagonist at concentration of 5 μM for 72H, the relative inhibitory potency of AVR antagonists in comparison to MIA-602 is summarized in Table 3 A and B. Over 60 AVR compounds were tested in 12 cancer cell lines.
(§5) Based on the results of cell proliferation assay after cancer cells were treated with antagonist at concentration of 5 µM for 72H, * at concentration of 2 µM for 72 H.

NCI-N87 xenograft = experiment: Xenograft tumor growth in nude mice, stomach cancer N87; format: in vivo; conditions: Panel D, 10 weeks, 2 μg/day s.c.
Description: The peptides' activity was compared with GHRH antagonist MIA-602. All statistical analyzses were performed from comparing GHRA antagonists to non-treated tumor (control).
Peptides and chemicals. GHRH antagonists MIA-602 and AVR-GHRH antagonists (see Table 2 above) were synthesized by solid phase methods and purified by HPLC. The peptides were dissolved in DMSO and further diluted in 10% 1, 2-propanediol. The final concentration of peptides was 50 µg/ml in 10% 1, 2-propanediol containing 0.1% of DMSO.
Cell culture. Human cancer cell lines including pancreatic (PANC-1 and CFPAC-1), lung (HCC827 and H460), stomach (NCI-N87), prostate (PC3), brest (MX-1 and HCC-1806), colorectal (HT-29), and ovarian (SK-OV-3 and OVCAR-3) were obtained from the American Type Culture Collection (ATCC) and cultured at 37° C. in a humidified 95% air/5% CO2 atmosphere in the medium recommended by ATCC.
Xenograft models of human cancers in nude mice. Female athymic (NCr nu/nu) nude mice, 5-to 6-weeks-old, obtained from the Envigo labs (Tampa, FL), were housed in laminar airflow cabinets under pathogen-free conditions with a 12-h light/12-h dark schedule, and were fed autoclaved standard chow and water. To generate mice with xenografted tumors, tumor xenografts were initiated by subcutaneous (s.c.) injection of […] human cancer cells into female nude mice. After about 4 weeks the resulting tumors were dissected and collected after removing necrosis tissues. The tumors were then cut into particles with size of ˜3 mm3 and transplanted s.c. by trocar needle into experimental animals. When tumors grew to the size of 50-60 mm3 (by volume), […] of 5 μg of GHRH antagonists MIA-602 or AVR-compounds (2-10 μg as indicated), or vehicle solutions (0.1% DMSO in 10% 1, 2-propanediol) respectively. Tumor sizes were measured weekly.
Statistical analysis. One-way ANOVA followed by Bonferroni comparison were performed. Data are expressed as Mean±SEM. To determine statistical significance between animal groups, two-tailed Student's t-test was conducted. Differences were considered significant when p<0.05.
Results. […] FIG. 1A-N represents in vivo inhibition of tumor growth during the treatment with GHRH antagonist MIA-602 and selected AVR antagonists in nude mice xenografted with various human tumors including pancreatic cancer PANC-1 (FIG. 1A) and CFPAC-1 (FIG. 1I); lung cancer HCC827 (FIGS. 1B, C) and H460 (FIG. 1H); stomach cancer N87 (FIGS. 1D-F); colon cancer HT-29 (FIG. 1G); breast cancer MX-1 and HCC-1806 (FIGS. 1J, K); ovarian cancer SK-OV-3 and OVACAR-3 (FIGS. 1L, M) and prostate cancer PC3 (FIG. 1N). See also Table 5.

HCC827 cells = experiment: In vitro cell viability, lung cancer HCC827; format: cell-based, human; conditions: 5 μM, 72 h; relative to MIA602 = 1; Table 3A
Description: as §1, §2, §3, §4, §5

CFPAC-1 cells = experiment: In vitro cell viability, pancreatic cancer CFPAC-1; format: cell-based, human; conditions: 5 μM, 72 h; relative to MIA602 = 1; Table 3A
Description: as §1, §2, §3, §4, §5

[1] = biological target: T1, membrane GHRH-receptors on human anterior pituitary cells (Homo sapiens, UniProt Q02643); experiment: Competitive receptor binding, displacement of 125I-[His1,Nle27]-hGH-RH(1-32)NH2 from human pituitary membranes
T1 construct: Human pituitary was purchased from the National Hormone and Peptide Program; tissue National Hormone and Peptide Program; host or cells: human pituitary membrane fractions
T1 sequence (Q02643 23-423): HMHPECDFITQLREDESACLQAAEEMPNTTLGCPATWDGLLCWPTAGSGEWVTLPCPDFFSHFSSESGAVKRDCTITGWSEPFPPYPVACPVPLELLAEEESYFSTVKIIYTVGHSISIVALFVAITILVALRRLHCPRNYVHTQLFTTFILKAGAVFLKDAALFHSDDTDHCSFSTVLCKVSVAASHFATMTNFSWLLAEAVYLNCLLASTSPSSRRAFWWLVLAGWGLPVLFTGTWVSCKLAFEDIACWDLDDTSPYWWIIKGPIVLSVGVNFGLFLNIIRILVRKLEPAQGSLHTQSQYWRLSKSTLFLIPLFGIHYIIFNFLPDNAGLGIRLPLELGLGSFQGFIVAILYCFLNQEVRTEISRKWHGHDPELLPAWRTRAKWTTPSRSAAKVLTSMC
Description: Receptor binding affinities in vitro. Preparation of human pituitary membrane fractions and receptor binding of analogs of GH-RH were performed (Halmos G, Rekasi Z, Szoke B, Schally A V. (1993) Receptor 3:87-97). Human pituitary was purchased from the National Hormone and Peptide Program. […] Relative affinities compared to hGH-RH(1-29)NH2 were calculated as the ratio of IC50 (dose causing 50% inhibition of specific binding to receptors) of the tested peptides to the IC50 of hGH-RH(1-29)NH2. The values were calculated from technical duplicate tubes.
Nineteen new AVR analogs of GHRH were tested in the receptor binding assay. Table 6 presents the IC50 values of GHRH antagonists to membrane GHRH-receptors binding on human anterior pituitary cells.

SMILES	In vitro relative inhibitory potency in comparison to MIA-602, NCI-N87 (NCI-N87 cells)	Tumor Growth % (NCI-N87 xenograft)	Relative inhibitory potency, Lung HCC827 (HCC827 cells)	Relative inhibitory potency, Pancreatic CFPAC-1 (CFPAC-1 cells)	Binding affinity to membrane receptors of human pituitary cells [1]
CCCC[C@H](NC(=O)[C@@H](NC(=O)[C@H](CC(=O)O)NC(=O)[C@H](CCC(N)=O)NC(=O)[C@H](CC(C)C)NC(=O)[C@H](CC(C)C)NC(=O)[C@H](CCCCN)NC(=O)[C@H](CCCNC(=N)N)NC(=O)[C@H](C)NC(=O)[C@H](CO)NC(=O)[C@H](CC(C)C)NC(=O)[C@H](CCC(N)=O)NC(=O)[C@H](CC)NC(=O)[C@H](CC(C)C)NC(=O)[C@@H](NC(=O)[C@H](CCCCN)NC(=O)[C@H](CCCNC(=N)N)NC(=O)[C@H](Cc1ccc(OC)cc1)NC(=O)[C@H](CCCCNC(=N)N)NC(=O)[C@H](CC(N)=O)NC(=O)[C@@H](NC(=O)[C@H](Cc1ccc(Cl)cc1)NC(=O)[C@@H](NC(=O)[C@H](C)NC(=O)[C@H](CC(=O)O)NC(=O)[C@@H](CCCNC(=N)N)NC(=O)[C@H](Cc1ccc(O)cc1)NC(=O)CCCCCCCCCCCNC(=O)Cc1c(F)c(F)c(F)c(F)c1F)[C@@H](C)CC)[C@@H](C)O)C(C)C)[C@@H](C)CC)C(=O)N[C@H](CCCNC(=N)N)C(=O)N[C@@H](CCCCNC(=N)N)C(=O)NCCCCCCCCCCCC(N)=O [AVR-333, 5FPhAC-Ada-Tyr-DArg-Asp-Ala-Ile-Cpa-Thr-Asn-Har-Tyr(Me)-Arg-Lys-Val-Leu-Abu-Gln-Leu-Ser-Ala-Arg-Lys-Leu-Leu-Gln-Asp-Ile-Nle-DArg-Har-Ada-NH2] ({Phenylacetyl(2,3,4,5,6-F5)-12Ado}-Y[dR]DAI[Phe(4-Cl)]TN[hArg]Y(Me)RKVL[Abu]QLSARKLLQDI[Nle][dR][hArg][12Ado]-NH2)	1.4	454.00%	–	–	–
CCCC[C@H](NC(=O)[C@@H](NC(=O)[C@H](CC(=O)O)NC(=O)[C@H](CCC(N)=O)NC(=O)[C@H](CC(C)C)NC(=O)[C@H](CC(C)C)NC(=O)[C@H](CCCN)NC(=O)[C@H](Cc1c[nH]cn1)NC(=O)[C@H](C)NC(=O)[C@H](CO)NC(=O)[C@H](CC(C)C)NC(=O)[C@H](CCC(N)=O)NC(=O)[C@H](CC)NC(=O)[C@H](CC(C)C)NC(=O)[C@@H](NC(=O)[C@H](CCCN)NC(=O)[C@H](Cc1c[nH]cn1)NC(=O)[C@H](Cc1c(F)c(F)c(F)c(F)c1F)NC(=O)[C@H](CCCCNC(=N)N)NC(=O)[C@H](C)NC(=O)[C@@H](NC(=O)[C@H](Cc1ccc(Cl)cc1)NC(=O)[C@@H](NC(=O)[C@H](C)NC(=O)[C@H](CC(=O)O)NC(=O)[C@@H](CCCNC(=N)N)NC(=O)[C@H](Cc1ccc(O)cc1)NC(=O)CCCCCCCCCCCNC(=O)Cc1c(F)c(F)c(F)c(F)c1F)[C@@H](C)CC)[C@@H](C)O)C(C)C)[C@@H](C)CC)C(=O)N[C@H](CCCNC(=N)N)C(=O)N[C@@H](CCCCNC(=N)N)C(=O)NCCCCCCCCCCCC(N)=O [AVR-552, 5FPhAC-Ada-Tyr-DArg-Asp-Ala-Ile-Cpa-Thr-Ala-Har-5FPhe-His-Orn-Val-Leu-Abu-Gln-Leu-Ser-Ala-His-Orn-Leu-Leu-Gln-Asp-Ile-Nle-DArg-Har-Ada-NH2] ({Phenylacetyl(2,3,4,5,6-F5)-12Ado}-Y[dR]DAI[Phe(4-Cl)]TA[hArg][Phe(F5)]H[Orn]VL[Abu]QLSAH[Orn]LLQDI[Nle][dR][hArg][12Ado]-NH2)	–	–	4.376	1.57	higher binding affinity in comparison to MIA-602; also recorded: highest binding affinities
